Reference: article PMC11982978, “Cancer hotspot mutations rewire ERK2 specificity by selective exclusion of docking interactions” (The Journal of Biological Chemistry, 2025)

Legend:
[1] = molecular target: T1, ERK2 WT (Mus musculus, UniProt P63085); test: Competitive peptide kinase assay (D-peptide inhibition), ERK2 WT; format: biochemical; settings: Table 2, 5 μM D-site dependent reporter peptide, 10 nM ERK2, 10 μM ATP, pH 7.4, fluorescence, mean of three independent replicates
T1 construct: His6; made in house; host or cells: E. coli BL21(DE3), co-expressed with GST-MEK1ΔN3
T1 sequence (P63085 whole entry): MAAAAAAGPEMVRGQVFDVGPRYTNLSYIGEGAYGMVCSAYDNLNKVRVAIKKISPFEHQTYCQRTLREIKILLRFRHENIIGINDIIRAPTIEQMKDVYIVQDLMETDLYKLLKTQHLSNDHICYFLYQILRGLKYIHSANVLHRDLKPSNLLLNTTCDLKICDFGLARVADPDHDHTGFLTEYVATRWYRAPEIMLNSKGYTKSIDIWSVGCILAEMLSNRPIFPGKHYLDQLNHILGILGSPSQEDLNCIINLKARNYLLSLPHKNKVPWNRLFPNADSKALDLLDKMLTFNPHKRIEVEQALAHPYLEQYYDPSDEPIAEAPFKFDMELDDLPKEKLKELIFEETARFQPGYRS
Protocol: We determined relative binding affinities for D-peptides from their potency as competitive inhibitors of WT or mutant ERK2 activity on a D-site-dependent reporter substrate peptide (Table S1, Fig. 3A, S3).
Competitive peptide kinase assays were performed with a D-site dependent MAPK reporter substrate peptide (AssayQuant Technologies Inc, #AQT0376) as we reported previously ([15]). Briefly, 5 μM of reporter peptide was mixed with various concentrations of D-peptides in reaction buffer (54 mM HEPES [pH 7.4], 1.2 mM DTT, 0.01% Brij-35, 1% glycerol, 0.2 mg/ml BSA, and 10 mM MgCl2). […] Phosphorylation of the reporter peptide was measured by fluorescence (λex 360 nm, λem 485 nm) in 90 s intervals over 21 min in a Spectra M5 plate reader. Rates were calculated from the linear portion of the reaction progress curve, and data were normalized to maximum (samples lacking competitor peptide) and minimum (control reactions lacking kinase) values. Normalized rates were plotted against D-peptide concentration and fitted into a sigmoidal dose-response curve to determine the IC50 values using GraphPad Prism (Version 9.3.0).

[2] = system: ERK2 D319N; test: Y2H D-site library screen, ERK2 D319N; format: cell-based, rat; parameters: key to ES, +His / ES, -His: ES = slope of ln(Ft/F0) vs number of yeast population doublings
From the text: (§1) To examine how cancer-associated CD site mutations affect the scope of ERK2 docking interactions, we adopted a Y2H strategy that we previously applied to define the D-site interactome of WT ERK2 ([15]). This system reports on interactions between ERK2 and a fragment of its substrate ELK1 that harbors a docking site essential for binding (Fig. 1C). The system thus evaluates the binding of potential sequences by substituting them for the native ELK1 docking site. We transformed Y2H strains with a bait plasmid expressing the Gal4 DNA-binding domain (DBD) fused to WT or CD mutant forms of rat ERK2 (R133K, D319N or E320K, equivalent respectively to human R135K, D321N and E322K), along with a prey plasmid expressing Gal4 activation domain (AD) fused to the ELK1 fragment harboring various docking site sequences. We then assayed these strains for growth on solid media under non-selective (+His) and selective conditions (−His) to detect interactions (Fig. 1D).
(§2) We previously used the Y2H system to screen WT ERK2 against a pooled library of 11,756 ELK1 variants incorporating potential docking sites from the human proteome ([15]). To identify interacting sequences either gained or lost upon ERK2 CD site mutation, we screened the same library against ERK2^D319N and ERK2^E320K. Yeast expressing ERK2 mutant bait plasmids were transformed with the ELK1 library pool and subjected to competitive growth under selective (−His) and non-selective conditions (+His) in parallel. Cultures were sampled periodically over ∼7 population doublings. The DNA sequence encoding the variable docking site region was PCR amplified and analyzed by next-generation sequencing (Fig. 2A, Dataset S1). The change in sequence abundance over time was fitted to an exponential function to assign an enrichment score (ES) to each docking site, where a higher ES indicates a greater increase in sequence abundance as the population grows. A significant enrichment of docking site sequences was observed only under selective conditions (Figs. 2B, S1). For each mutant, we observed generally good reproducibility across three independently conducted screens albeit with some sequences enriched in only a single replicate (Fig. S2, A and B). Average ES scores for the E320K and D319N mutant screens were better correlated with each other (R = 0.83) than were average ES scores for either mutant compared to WT ERK2 (R = 0.67 for WT versus D319N, R = 0.63 for WT versus E320K) (Fig. S2C).
(§3) To compare sequences selected by CD mutants with those selected by WT ERK2, we defined those sequences with an ES equal to or higher than three standard deviations from the mean (Z > 3) as hits. Using this cutoff, we obtained 121, 127, and 153 hits sequences from the WT, D319N, and E320K screens, respectively (Fig. 2C, Dataset S2).
(§4) Yeast harboring pGBT9-ERK2^E320K or pGBT9-ERK2^D319N were transformed with the pGADGH-ELK1 D-site library plasmid pool. Transformants (10–40 colonies per library component) were suspended in SD-Leu-Trp media, diluted to an OD600 of 0.1, and cultured in a shaking incubator at 30 °C to an OD600 of 1.0. The resulting culture was used to initiate a competitive selection screen. Cell growth, sample collection and data analysis were performed exactly as described previously for WT ERK2 ([15]). The frequency (F) of each D-site sequence at a given time point (t) was calculated by dividing the number of reads by the total read count for all sequences. For each sequence, a plot of ln(Ft/F0) as a function of the number of yeast population doublings was fit to a line, and the enrichment score (ES) for that sequence was defined as the slope of this line. Illumina sequencing reads, calculated ES, and Z scores for each screen are provided in Dataset S1.

[3] = system: ERK2 E320K; test: Y2H D-site library screen, ERK2 E320K; format: cell-based, rat; parameters: key to ES, +His / ES, -His: ES = slope of ln(Ft/F0) vs number of yeast population doublings
From the text: as §1, §2, §3, §4

[4] = system: WT ERK2; settings: selective conditions (-His); hits Z > 3; average of three screens; cited from earlier work
From the text: Supplement mmc2.xlsx, sheet "WT Hits" | column: Z-score

[5] = Average of 3 Replicate Screens, non-selective
[6] = Average of 3 Replicate Screens, selective
[7] = Average of 3 Replicate Experiments, non-selective
[8] = Average of 3 Replicate Experiments, selective

## CC[C@H](C)[C@H](NC(=O)[C@H](C)NC(=O)[C@@H](N)Cc1ccc(O)cc1)C(=O)N[C@@H](CCCNC(=N)N)C(=O)N[C@@H](C)C(=O)N[C@@H](CCCNC(=N)N)C(=O)N[C@@H](CCCNC(=N)N)C(=O)N[C@@H](CCC(N)=O)C(=O)N[C@@H](CC(C)C)C(=O)N1CCC[C@H]1C(=O)N[C@@H](CCCNC(=N)N)C(=O)N[C@@H](CC(C)C)C(=O)N[C@@H](C)C(=O)N[C@H](C(=O)N[C@@H](CO)C(=O)N[C@@H](CC(=O)O)C(=O)O)C(C)C [ISG20 peptide G6Q]
[1]
  IC50: 41 µM

## CC(C)C[C@H](NC(=O)[C@H](CCCNC(=N)N)NC(=O)[C@@H]1CCCN1C(=O)[C@H](CC(C)C)NC(=O)CNC(=O)[C@H](CCCNC(=N)N)NC(=O)[C@H](CCCNC(=N)N)NC(=O)[C@H](C)NC(=O)[C@H](CCCNC(=N)N)NC(=O)[C@H](CC(N)=O)NC(=O)[C@H](C)NC(=O)[C@@H](N)Cc1ccc(O)cc1)C(=O)N[C@@H](C)C(=O)N[C@H](C(=O)N[C@@H](CO)C(=O)N[C@@H](CC(=O)O)C(=O)O)C(C)C [ISG20 peptide I1N]
[1]
  IC50: 190 µM

## CC[C@H](C)[C@H](NC(=O)[C@H](CCCNC(=N)N)NC(=O)[C@H](C)NC(=O)[C@@H](N)Cc1ccc(O)cc1)C(=O)N[C@@H](C)C(=O)N[C@@H](CCCNC(=N)N)C(=O)N[C@@H](CCCNC(=N)N)C(=O)NCC(=O)N[C@@H](CC(C)C)C(=O)N1CCC[C@H]1C(=O)N[C@@H](CCCNC(=N)N)C(=O)N[C@@H](CC(C)C)C(=O)N[C@@H](C)C(=O)N[C@H](C(=O)N[C@@H](CO)C(=O)N[C@@H](CC(=O)O)C(=O)O)C(C)C [ISG20 peptide I1R/R2I]
[1]
  IC50: 200 µM

## GTRQVKNKGVIVKK [MEIKIN, D-site 14-mer in ELK1 Y2H prey]
[2]; [5]
  ES, +His: -0.02174
  Z-Score, +His: -0.8853
[2]; [6]
  ES, -His: -0.1312
  Z-Score, -His: -0.1438
[2]; Experiment 1, non-selective
  ES, +His: -0.02593
[2]; Experiment 1, selective
  ES, -His: -0.1282
[2]; Experiment 2, non-selective
  ES, +His: -0.03529
[2]; Experiment 2, selective
  ES, -His: -0.1336
[2]; Experiment 3, non-selective
  ES, +His: -0.004005
[2]; Experiment 3, selective
  ES, -His: -0.1318
[3]; [7]
  ES, +His: -0.01644
  Z-Score, +His: -0.6905
[3]; [8]
  ES, -His: -0.1045
  Z-Score, -His: 0.2622
[3]; Experiment 1, non-selective
  ES, +His: 0.02832
[3]; Experiment 1, selective
  ES, -His: -0.1559
[3]; Experiment 2, non-selective
  ES, +His: -0.03889
[3]; Experiment 2, selective
  ES, -His: -0.03551
[3]; Experiment 3, non-selective
  ES, +His: -0.03876
[3]; Experiment 3, selective
  ES, -His: -0.1222

## QGKTKRPVDLKIKN [TAGAP, D-site 14-mer in ELK1 Y2H prey]
[4]
  Z-score (ES) of hit sequences, WT ERK2 Y2H screen: 3.38

## QLPPRKLPTLKLTP [MTX3, D-site 14-mer in ELK1 Y2H prey]
[4]
  Z-score (ES) of hit sequences, WT ERK2 Y2H screen: 3.25

## QVKLRSRTSLTLPR [RGL1, D-site 14-mer in ELK1 Y2H prey]
[4]
  Z-score (ES) of hit sequences, WT ERK2 Y2H screen: 4.63

## QVPKKAWRKLKLPG [DCAF11, D-site 14-mer in ELK1 Y2H prey]
[4]
  Z-score (ES) of hit sequences, WT ERK2 Y2H screen: 5.07

## RKARRLEPGLLLPG [SOX18, D-site 14-mer in ELK1 Y2H prey]
[4]
  Z-score (ES) of hit sequences, WT ERK2 Y2H screen: 7.78

## RKEVKRKKVVHMNK [RNF151, D-site 14-mer in ELK1 Y2H prey]
[4]
  Z-score (ES) of hit sequences, WT ERK2 Y2H screen: 6.59

## RKKDRPRKHLTLNN [SP100, D-site 14-mer in ELK1 Y2H prey]
[4]
  Z-score (ES) of hit sequences, WT ERK2 Y2H screen: 3.83

## RKKKLTMRPLVLQK [MAP3K19, D-site 14-mer in ELK1 Y2H prey]
[4]
  Z-score (ES) of hit sequences, WT ERK2 Y2H screen: 3.59

## RKPRSPPRALVLPH [PEG10, D-site 14-mer in ELK1 Y2H prey]
[4]
  Z-score (ES) of hit sequences, WT ERK2 Y2H screen: 3.94

## RKRSKPKLKLKIIN [KMT2C, D-site 14-mer in ELK1 Y2H prey]
[4]
  Z-score (ES) of hit sequences, WT ERK2 Y2H screen: 17.15

## RKTKKKKSHLSLVG [ATXN7L3, D-site 14-mer in ELK1 Y2H prey]
[4]
  Z-score (ES) of hit sequences, WT ERK2 Y2H screen: 3.39

## RLQSRKPPNLSITI [RHBDF2, D-site 14-mer in ELK1 Y2H prey]
[4]
  Z-score (ES) of hit sequences, WT ERK2 Y2H screen: 20.42

## RPRCRRQPRLRLPT [EPM2A, D-site 14-mer in ELK1 Y2H prey]
[4]
  Z-score (ES) of hit sequences, WT ERK2 Y2H screen: 13.05

## RQIRASKGIVVLEE [KANSL1L, D-site 14-mer in ELK1 Y2H prey]
[2]; [5]
  ES, +His: -0.009508
  Z-Score, +His: -0.257
[2]; [6]
  ES, -His: -0.1275
  Z-Score, -His: -0.06943
[2]; Experiment 1, non-selective
  ES, +His: -0.002763
[2]; Experiment 1, selective
  ES, -His: -0.1582
[2]; Experiment 2, non-selective
  ES, +His: -0.0144
[2]; Experiment 2, selective
  ES, -His: -0.1186
[2]; Experiment 3, non-selective
  ES, +His: -0.01136
[2]; Experiment 3, selective
  ES, -His: -0.1057
[3]; [7]
  ES, +His: -0.008476
  Z-Score, +His: -0.2637
[3]; [8]
  ES, -His: -0.1355
  Z-Score, -His: -0.3259
[3]; Experiment 1, non-selective
  ES, +His: 0.001097
[3]; Experiment 1, selective
  ES, -His: -0.1358
[3]; Experiment 2, non-selective
  ES, +His: -0.005884
[3]; Experiment 2, selective
  ES, -His: -0.07688
[3]; Experiment 3, non-selective
  ES, +His: -0.02064
[3]; Experiment 3, selective
  ES, -His: -0.1937

## RQKKERPHMLNLSG [SYDE2, D-site 14-mer in ELK1 Y2H prey]
[4]
  Z-score (ES) of hit sequences, WT ERK2 Y2H screen: 5.14

## RRQHRPPALLTLYP [DOCK6, D-site 14-mer in ELK1 Y2H prey]
[4]
  Z-score (ES) of hit sequences, WT ERK2 Y2H screen: 3.71

## RRRGTRPPLLALLA [ROR1, D-site 14-mer in ELK1 Y2H prey]
[4]
  Z-score (ES) of hit sequences, WT ERK2 Y2H screen: 4.89

## RSVRKRSPWLQLPG [FCRLB, D-site 14-mer in ELK1 Y2H prey]
[4]
  Z-score (ES) of hit sequences, WT ERK2 Y2H screen: 3.88

## SGDPRKPRQLTVGD [ZMYND15, D-site 14-mer in ELK1 Y2H prey]
[4]
  Z-score (ES) of hit sequences, WT ERK2 Y2H screen: 5.02

## SGMRARRGLLRLPR [B4GALT5, D-site 14-mer in ELK1 Y2H prey]
[4]
  Z-score (ES) of hit sequences, WT ERK2 Y2H screen: 5.95

## SKGKKRNPGLKIPK [MAP2K6, D-site 14-mer in ELK1 Y2H prey]
[4]
  Z-score (ES) of hit sequences, WT ERK2 Y2H screen: 8.58

## SLARAKRPSVSFAE [SCARF1, D-site 14-mer in ELK1 Y2H prey]
[4]
  Z-score (ES) of hit sequences, WT ERK2 Y2H screen: 5.09

## SLKKKIQPKLSLTL [JAZF1, D-site 14-mer in ELK1 Y2H prey]
[4]
  Z-score (ES) of hit sequences, WT ERK2 Y2H screen: 5.24

## SPKWKNFKGLKLQW [MLXIP, D-site 14-mer in ELK1 Y2H prey]
[4]
  Z-score (ES) of hit sequences, WT ERK2 Y2H screen: 8.72

## SRKQRQPARLQLPA [ZBTB45, D-site 14-mer in ELK1 Y2H prey]
[4]
  Z-score (ES) of hit sequences, WT ERK2 Y2H screen: 3.70

## TKMQKKVLSLRLPC [RIN2, D-site 14-mer in ELK1 Y2H prey]
[4]
  Z-score (ES) of hit sequences, WT ERK2 Y2H screen: 7.27

## TRQKHAKKHLGFFR [UTP23, D-site 14-mer in ELK1 Y2H prey]
[4]
  Z-score (ES) of hit sequences, WT ERK2 Y2H screen: 3.13

## TYRPKRPTTLNLFP [MAPK8IP1, D-site 14-mer in ELK1 Y2H prey]
[4]
  Z-score (ES) of hit sequences, WT ERK2 Y2H screen: 3.22

## VVALRKKQQLAIGP [AGAP3, D-site 14-mer in ELK1 Y2H prey]
[4]
  Z-score (ES) of hit sequences, WT ERK2 Y2H screen: 6.33

## YKMKFFTKCVAFSK [LRP2BP, D-site 14-mer in ELK1 Y2H prey]
[4]
  Z-score (ES) of hit sequences, WT ERK2 Y2H screen: 3.15
